Data on five compounds can be found in ChEMBL document CHEMBL1781966, “Lead optimization of 4-imidazolylflavans: new promising aromatase inhibitors” (Eur J Med Chem, 2011).

A word on the IC50: it is the midpoint of a concentration-inhibition curve.

SMILES strings stand for the structures.

The assay has as its target T1, Aromatase (Homo sapiens, UniProt P11511).
T1 sequence (P11511 whole entry): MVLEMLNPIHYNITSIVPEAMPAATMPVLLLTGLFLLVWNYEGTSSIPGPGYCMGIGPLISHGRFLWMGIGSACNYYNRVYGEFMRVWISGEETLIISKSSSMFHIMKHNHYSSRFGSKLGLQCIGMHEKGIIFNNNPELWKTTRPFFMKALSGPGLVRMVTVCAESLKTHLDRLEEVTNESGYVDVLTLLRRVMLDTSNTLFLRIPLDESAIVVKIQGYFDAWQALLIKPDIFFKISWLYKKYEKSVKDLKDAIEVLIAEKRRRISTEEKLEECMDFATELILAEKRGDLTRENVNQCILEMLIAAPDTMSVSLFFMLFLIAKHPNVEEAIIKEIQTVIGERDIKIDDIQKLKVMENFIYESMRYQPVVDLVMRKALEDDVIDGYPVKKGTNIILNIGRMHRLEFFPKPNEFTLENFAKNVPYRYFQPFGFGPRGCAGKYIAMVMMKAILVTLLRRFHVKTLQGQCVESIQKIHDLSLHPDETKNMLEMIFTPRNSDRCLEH
As to the kind of experiment: Inhibition of aromatase in human placental microsomes assessed as inhibition of aromatization of [1,2,6,7-3H] androstenedione by flow scintillation analysis. Further details: species or system Placenta.
`N#Cc1ccc(C2CC(n3ccnc3)c3ccc4ccccc4c3O2)cc1` (cis isomer): the IC50 was found to be 0.534 µM. On to `Oc1ccc(C2CC(n3ccnc3)c3ccc4ccccc4c3O2)cc1` (mixture of isomers), for which the concentration for half-maximal inhibition (IC50) was found to be 0.032 µM. Regarding `N#Cc1ccc(C2CC(n3ccnc3)c3ccc4ccccc4c3O2)cc1` (mixture of isomers), the half-inhibitory concentration (IC50) stood at 0.078 µM. Turning to `N#Cc1ccc(C2CC(n3ccnc3)c3ccc4ccccc4c3O2)cc1` (stereo in doubt), the half-maximal inhibitory concentration (IC50) came out at 0.034 µM. With `c1ccc(C2CC(n3ccnc3)c3ccc4ccccc4c3O2)cc1` (trans isomer), the IC50 stood at 0.036 µM.
